Here are results for eight compounds from patent publication US20230366033A1, “METHODS FOR TREATING CANCERS WITH INHIBITORS TARGETING THE ROLE OF GRB2 IN DNA REPAIR” (Board of Regents, The University of Texas System, priority 2020, published 2023).

In assay [1] the target is T1, K109R GRB2 mutant (Homo sapiens, UniProt P62993, K109R).
T1 construct: 6xHis; made in house
The experiment in a line: Microscale thermophoresis (MST) binding of synthetic peptides. As to conditions: 100 nM Atto488-labelled K109R GRB2. The source says:
(§1) FIGS. 3A-3I. Identification of GRB2 binding interfaces on MRE11, RPA70 and H2AX. (FIG. 3A) Schematic DDR binding-motifs (circles) on GRB2 within its domain architecture. Approximate non-canonical binding motifs are shown. (FIG. 3B) GST-SH domains pulldown of HEK293T cell-extracts followed by immunoblotting with indicated antibodies. (FIG. 3C) GST pulldown of bacterially expressed and purified human MRE11 with indicated GRB2 SH-domains. (FIG. 3D) OB1 fold binding motifs sequence alignment (top). MST isotherms of 50 nM Atto488-labelled RPA70 N-terminal domain (residue 1-120) binding to titrating concentrations (2 nM to 20 μM) of GRB2 or GRB2-derived OB1 peptide. The binding affinity (Kd) is shown. (FIG. 3E) Strep-Tactin precipitation of WT and DF/AA mutant from HEK293T cells that were either untreated (normal) or immediately after IR treated (5 Gy) and lysed, followed by western blot detection with the indicated antibodies. (FIG. 3F) MST-binding isotherms of an Atto488-labelled GRB2-SH2 domain (100 nM) binding to titrating concentrations (30 nM to 500 μM) of synthetic peptides derived from indicated proteins. (FIG. 3G) MST-isotherms of 100 nM Atto488-labelled K109R GRB2 mutant binding to titrating concentrations (30 nM to 200 μM) of synthetic peptides derived from the indicated proteins. Each isotherm was derived from the raw data and fitted according to the law of mass action to yield an apparent Kd. (FIG. 3H) Molecular docking overlay model of GRB2-SH2 domain with (PDB: 3wa4) and without (PDB: 1gri) showing S88 and S90 movement ˜4.7 Å when bound to phosphotyrosine peptide (PDB: 3wa4). K109R shown modeled, which could engage with the loop containing S88 and S90 residues. (FIG. 3I) Docking of pH2AX, MRE11 and pEGFR peptide into GRB2 SH2 domain pocket. The relative docking orientation of each peptide is shown.
(§2) Microscale thermophoresis. The MST method has been described in detail elsewhere (Seidel et al., 2013). The Kd values were measured using the Monolith NT.115 system (Nano Temper). Proteins were fluorescently labeled with Atto 488 according to the manufacturer's protocol. Labeling efficiency was determined to be 1:1 (protein:dye) by measuring the absorbance at 280 and 488 nm. A solution of peptides or proteins in 0.01 M HEPES (pH 7.4), 0.15 M NaCl and 0.005% v/v Surfactant P20 was serially diluted, typically from about 100 μM to 30 nM in the presence of 100 nM labeled protein. The samples were loaded into silica capillaries (Polymicro Technologies) after incubation at room temperature for 15 min. Measurements were performed at 22° C. using 20% LED power and 40% IR-laser power. Measurements were also carried out using 20% and 60% IR-laser power for comparison. Data analyses were performed using Nano Temper Analysis software using the Kd curve fitting function. Raw data were exported and fitting curves were generated using Prism 8 (GraphPad Software) for presentation.
In general terms: MST reads how a fluorescent partner responds to local heating, with and without ligand.

Assay [2] deals with T2, GRB2-SH2 domain (Homo sapiens, UniProt P62993).
T2 construct: 6xHis; made in house
Described as above.
Excerpt: as §1, §2

Assay [3] addresses T3, human MRE11 (residue 1-411) (Homo sapiens, UniProt P49959).
T3 construct: Human MRE11 core (residues 1-411) purification was described previously; 6xHis; made in house
T3 sequence (P49959 1-411): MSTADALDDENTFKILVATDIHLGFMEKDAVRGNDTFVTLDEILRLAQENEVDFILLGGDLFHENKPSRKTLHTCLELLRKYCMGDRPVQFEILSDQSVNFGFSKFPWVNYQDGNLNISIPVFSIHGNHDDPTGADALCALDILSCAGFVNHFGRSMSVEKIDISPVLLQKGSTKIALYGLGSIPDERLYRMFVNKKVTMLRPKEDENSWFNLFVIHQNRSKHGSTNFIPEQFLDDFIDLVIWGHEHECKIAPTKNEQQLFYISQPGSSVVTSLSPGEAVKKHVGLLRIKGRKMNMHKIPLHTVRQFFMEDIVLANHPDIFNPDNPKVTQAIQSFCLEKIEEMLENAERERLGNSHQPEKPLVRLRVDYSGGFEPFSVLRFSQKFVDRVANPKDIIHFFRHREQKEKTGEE
The experiment in a line: Microscale thermophoresis (MST) binding of GRB2 WT and mutants. As to conditions: bacterially expressed proteins lacking ubiquitination. The source says:
FIGS. 2A-2H. Interactions of nGRB2 with DNA damage response factors. (FIG. 2A) Mass spectrometry identifies nuclear GRB2-associated proteins that are involved in DNA damage repair. Mean of coverage and unique peptides from three independent data sets are shown. (FIG. 2B) Strep-Tactin precipitation of Strep-GRB2 precipitated from HEK293T cells followed by western blotting with indicated antibodies. (FIG. 2C) GRB2 preferentially co-precipitate MRE11 without RAD50 or NBS1. Strep-GRB2 expressed HEK293T cells treated with or without 5 Gy IR were lysed immediately followed by Strep-Tactin precipitation and immunoblotting with indicated antibodies. (FIG. 2D) Immunoprecipitation of NBS1. HEK293T cells were co-transfected with RFP-GRB2 and GFP-NBS1 or GFP alone as control. Total cell lysates were precipitated with GFP-trap beads and immunoblotted with indicated antibodies. (FIG. 2E) Immunoprecipitation of RAD50. HEK293T cells expressing Flag-RAD50 or Flag-Ctrl were co-transfected with RFP-GRB2 for 24 h. Unperturbed cells were immunoprecipitated with Flag-M2 beads and immunoblotted with indicated antibodies. β-Actin was used as a loading control. (FIG. 2F) Immunoprecipitation of MRE11. […]
(§3) Microscale thermophoresis. […] The Kd values were measured using the Monolith NT.115 system (Nano Temper). […] Labeling efficiency was determined to be 1:1 (protein:dye) by measuring the absorbance at 280 and 488 nm. […]

For assay [4], the target named is T4, RPA70 N-terminal domain (residue 1-120) (Homo sapiens, UniProt P27694).
T4 construct: 6xHis; made in house
In words: Microscale thermophoresis (MST) binding. As to conditions: 50 nM Atto488-labelled RPA70N.
Excerpt: FIGS. 3A-3I. Identification of GRB2 binding interfaces on MRE11, RPA70 and H2AX. (FIG. 3A) Schematic DDR binding-motifs (circles) on GRB2 within its domain architecture. Approximate non-canonical binding motifs are shown. (FIG. 3B) GST-SH domains pulldown of HEK293T cell-extracts followed by immunoblotting with indicated antibodies. (FIG. 3C) GST pulldown of bacterially expressed and purified human MRE11 with indicated GRB2 SH-domains. (FIG. 3D) OB1 fold binding motifs sequence alignment (top). MST isotherms of 50 nM Atto488-labelled RPA70 N-terminal domain (residue 1-120) binding to titrating concentrations (2 nM to 20 μM) of GRB2 or GRB2-derived OB1 peptide. The binding affinity (Kd) is shown. (FIG. 3E) Strep-Tactin precipitation of WT and DF/AA mutant from HEK293T cells that were either untreated (normal) or immediately after IR treated (5 Gy) and lysed, followed by western blot detection with the indicated antibodies. (FIG. 3F) MST-binding isotherms of an Atto488-labelled GRB2-SH2 domain (100 nM) binding to titrating concentrations (30 nM to 500 μM) of synthetic peptides derived from indicated proteins. […]
as §3

Like-named read-outs stand apart in the source and are kept apart here. Where no end group is shown, it is not given here. [ ]: non-standard residue; d: D form. pY = N[C@@H](Cc1ccc(OP(=O)(O)O)cc1)C(=O)O

T1 sequence (P62993 whole entry K109R): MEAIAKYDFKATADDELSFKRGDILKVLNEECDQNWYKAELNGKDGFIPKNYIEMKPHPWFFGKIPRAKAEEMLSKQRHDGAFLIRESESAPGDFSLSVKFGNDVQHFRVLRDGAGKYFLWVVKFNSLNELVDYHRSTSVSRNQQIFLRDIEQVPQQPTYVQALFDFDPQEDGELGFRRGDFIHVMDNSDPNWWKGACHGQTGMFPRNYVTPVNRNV
T2 sequence (P62993 60-152 limits assumed): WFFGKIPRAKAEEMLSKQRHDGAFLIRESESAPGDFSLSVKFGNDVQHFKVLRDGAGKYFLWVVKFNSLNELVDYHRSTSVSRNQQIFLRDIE
T4 sequence (P27694 1-120): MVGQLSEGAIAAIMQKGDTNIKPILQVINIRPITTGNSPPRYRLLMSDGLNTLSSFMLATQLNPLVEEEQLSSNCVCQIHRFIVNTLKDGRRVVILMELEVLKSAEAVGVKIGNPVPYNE

Take `CC(C)C[C@H](NC(=O)[C@H](CC(N)=O)NC(=O)CNC(=O)[C@H](CC(=O)O)NC(=O)[C@H](CCC(N)=O)NC(=O)[C@H](Cc1ccc(O)cc1)NC(=O)[C@H](CC(N)=O)NC(=O)[C@@H](NC(=O)[C@H](Cc1c[nH]c2ccccc12)NC(=O)[C@@H]1CCCN1)C(C)C)C(=O)N[C@@H](CC(N)=O)C(=O)O`: the “binding affinity to K109R GRB2 relative to WT GRB2” value in assay [1] is reported as “at least two orders of magnitude weaker”. The Kd is the constant that tells how readily two partners part at equilibrium. `CC[C@H](C)[C@H](NC(=O)[C@H](Cc1ccc(OP(=O)(O)O)cc1)NC(=O)[C@H](CCC(=O)O)NC(=O)[C@@H]1CCCN1C(=O)[C@@H](NC(=O)[C@@H]1CCCN1C(=O)[C@H](CC(C)C)NC(=O)[C@@H](N)Cc1ccccc1)C(C)C)C(=O)N[C@@H](CC(N)=O)C(=O)N[C@@H](CCC(N)=O)C(=O)N[C@@H](CO)C(=O)N[C@H](C(=O)N1CCC[C@H]1C(=O)N[C@@H](CCCCN)C(=O)N[C@@H](CCCNC(=N)N)C(=O)O)C(C)C` [pEGFR] showed a Kd in assay [2] of 7.2 ± 2 µM. Further, the “binding affinity to K109R GRB2 relative to WT GRB2” value in assay [1] is “comparable to that of ^WTGRB2”. `C[C@H](NC(=O)[C@H](CCCCN)NC(=O)[C@H](CCCCN)NC(=O)CNC(=O)CNC(=O)[C@H](CO)NC(=O)[C@@H]1CCCN1)C(=O)N[C@H](C(=O)N[C@@H](CCC(N)=O)C(=O)N[C@@H](C)C(=O)N[C@@H](COP(=O)(O)O)C(=O)N[C@@H](CCC(N)=O)C(=O)N[C@@H](CCC(=O)O)C(=O)N[C@@H](Cc1ccc(OP(=O)(O)O)cc1)C(=O)O)[C@@H](C)O` [pH2AX peptide]: the Kd in assay [2] (MST, 100 nM Atto488-labelled GRB2-SH2 domain, read-out: Kd, binding to GRB2-SH2 domain) amounted to 2.8 ± 3.3 µM. Moreover, the “binding affinity to K109R GRB2 relative to WT GRB2” value in assay [1] is on record as “comparable to that of ^WTGRB2”. Regarding “K109A mutant: ubiquitination-defective GRB2 K109A mutant, bacterially expressed”, the “dissociation constant (Kd), interaction with MRE11” value in assay [3] is recorded as “intact MRE11 binding”.

Consider “K109R mutant: GRB2 lysine-to-arginine mutant at K109, bacterially expressed”, for which the “dissociation constant (Kd), interaction with MRE11” value in assay [3] is “no binding”. For the compound KYDFKATADDELSFKRG, in assay [4], the “binding to RPA70N” value is recorded as “interacted with RPA70N”.

In the case of WVNpYQDGNLN (WVN[pY]QDGNLN), the “effect of tyrosine phosphorylation on binding affinity for GRB2-SH2 domain” value in assay [2] (MST) was “limited impact on its binding affinity”.

As for “non-ubiquitinated GRB2: bacterially expressed and purified wild-type growth factor receptor-bound protein 2”, in assay [4], the “binding to RPA70N” value is “direct binding”.
